# Results taken from publication PMC2233901 (The Journal of General Physiology, 2004).
# Numbering of substitutions follows the chain as printed.
# Tests used:
# Format in all cases: cell-based
# [1] = biological target: T1, mBest2 (mouse bestrophin-2) (Mus musculus, UniProt Q8BGM5); assay: whole-cell patch clamp, block of Cl current in HEK293
# T1 sequence (Q8BGM5 1-508): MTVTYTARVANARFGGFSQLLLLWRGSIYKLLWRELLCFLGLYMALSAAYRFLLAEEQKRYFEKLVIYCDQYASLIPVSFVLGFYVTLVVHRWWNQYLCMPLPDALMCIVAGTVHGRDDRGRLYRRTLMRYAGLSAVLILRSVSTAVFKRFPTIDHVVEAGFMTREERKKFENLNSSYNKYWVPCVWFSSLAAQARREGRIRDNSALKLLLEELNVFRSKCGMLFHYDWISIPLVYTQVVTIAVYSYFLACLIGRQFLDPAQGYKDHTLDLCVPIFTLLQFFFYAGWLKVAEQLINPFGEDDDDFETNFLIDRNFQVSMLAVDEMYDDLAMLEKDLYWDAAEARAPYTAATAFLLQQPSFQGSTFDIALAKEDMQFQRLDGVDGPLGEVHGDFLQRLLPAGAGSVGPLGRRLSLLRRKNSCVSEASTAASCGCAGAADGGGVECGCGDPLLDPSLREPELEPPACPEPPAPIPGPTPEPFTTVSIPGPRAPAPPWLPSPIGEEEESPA
# [2] = biological target: T2, mBest2 (mouse bestrophin-2) (Mus musculus, UniProt Q8BGM5, S79T); assay: as above
# T2 sequence (Q8BGM5 1-508 S79T): T1 sequence (Q8BGM5 1-508) with S79T
# [3] = biological target: T3, mBest2 (mouse bestrophin-2) (Mus musculus, UniProt Q8BGM5, F80R); assay: whole-cell patch clamp, inhibition of Cl current in HEK293
# T3 sequence (Q8BGM5 1-508 F80R): T1 sequence (Q8BGM5 1-508) with F80R
IC50 [1],IC50 [2],Ki [3],SMILES
9.8 ± 1.1 mM,18.5 ± 2.7 mM,–,N#CS [SCN]
–,–,0.016 mM,O=S(=O)(O)c1cc(N=C=S)ccc1/C=C/c1ccc(N=C=S)cc1S(=O)(=O)O [DIDS]
